Test results: US12545673B2, “Imidazopyridine derivative and pharmaceutical composition comprising same as active ingredient” (TSD LIFE SCIENCES CO., LTD., priority 2019, dated 2026)
Like-named read-outs stand apart in the source and are kept apart here.

How the values were obtained:
[1] = molecular target: MLK1 (Homo sapiens (Human), UniProt P80192); experiment: Evaluation of inhibitory activity of enzyme units, MLK1 ([γ-33P]-ATP filter assay); assay type: biochemical
[2] = molecular target: MLK3 (Homo sapiens (Human), UniProt Q16584); experiment: Evaluation of inhibitory activity of enzyme units, MLK3 ([γ-33P]-ATP filter assay); settings: read-out: IC50(nM) MLK3
[3] = tested on: Fibronectin-1; experiment: Fibrosis inhibition evaluation 2, palmitic acid-induced HepG2, real-time PCR, Fibronectin-1
[4] = tested on: TGF-β1; experiment: Fibrosis inhibition evaluation 2, palmitic acid-induced HepG2, real-time PCR, TGF-β1
[5] = tested on: α-SMA; experiment: Fibrosis inhibition evaluation 2, palmitic acid-induced HepG2, real-time PCR, α-SMA; settings: palmitic acid-induced HepG2 (Table 8)
[6] = molecular target: MLK2 (Homo sapiens (Human), UniProt Q02779); experiment: Evaluation of inhibitory activity of enzyme units, MLK2 ([γ-33P]-ATP filter assay); assay type: biochemical
Chain of MLK2 (Q02779 whole entry, looked up): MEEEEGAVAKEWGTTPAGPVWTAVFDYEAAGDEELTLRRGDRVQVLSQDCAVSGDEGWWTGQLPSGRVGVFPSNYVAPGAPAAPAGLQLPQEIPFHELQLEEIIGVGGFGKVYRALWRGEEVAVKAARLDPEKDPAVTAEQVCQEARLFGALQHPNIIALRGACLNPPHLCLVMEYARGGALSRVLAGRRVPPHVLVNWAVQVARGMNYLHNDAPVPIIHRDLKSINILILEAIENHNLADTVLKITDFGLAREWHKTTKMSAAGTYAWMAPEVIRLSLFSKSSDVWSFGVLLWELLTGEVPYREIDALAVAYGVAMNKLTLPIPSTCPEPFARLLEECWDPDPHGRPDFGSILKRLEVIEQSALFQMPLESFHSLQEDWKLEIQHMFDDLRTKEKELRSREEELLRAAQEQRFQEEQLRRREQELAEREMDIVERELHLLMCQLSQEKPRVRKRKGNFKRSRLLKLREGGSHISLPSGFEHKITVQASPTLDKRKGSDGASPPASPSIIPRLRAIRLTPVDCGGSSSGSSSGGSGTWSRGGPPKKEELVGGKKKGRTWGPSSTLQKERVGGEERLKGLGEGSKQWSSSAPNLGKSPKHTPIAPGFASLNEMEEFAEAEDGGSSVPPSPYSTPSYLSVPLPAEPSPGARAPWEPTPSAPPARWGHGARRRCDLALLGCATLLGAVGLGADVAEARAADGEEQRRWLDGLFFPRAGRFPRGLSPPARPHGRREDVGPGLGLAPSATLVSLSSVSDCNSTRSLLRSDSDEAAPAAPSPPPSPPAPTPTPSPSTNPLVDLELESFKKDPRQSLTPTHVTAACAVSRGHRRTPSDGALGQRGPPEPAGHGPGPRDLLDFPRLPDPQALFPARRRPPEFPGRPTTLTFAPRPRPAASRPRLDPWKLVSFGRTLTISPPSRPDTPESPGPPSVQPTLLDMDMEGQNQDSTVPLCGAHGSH

[7] = tested on: gastric cancer cell line AGS; experiment: Cancer cell proliferation inhibitory activity evaluation 2 (CCK-8), AGS; assay type: cell-based; settings: Homo sapiens, read-out: Cancer cell proliferation inhibitory activity AGS
[8] = tested on: acute myeloid leukemia cell line U937; experiment: Cancer cell proliferation inhibitory activity evaluation 2 (CCK-8), U937; assay type: cell-based; settings: Homo sapiens, read-out: Cancer cell proliferation inhibitory activity U937
[9] = tested on: acute lymphoblastic leukemia cell line Jurkat; experiment: Cancer cell proliferation inhibitory activity evaluation 2 (CCK-8), Jurkat; assay type: cell-based; settings: Homo sapiens
[10] = molecular target: LRRK2 mutant (G2019S) (Homo sapiens (Human), UniProt Q5S007, G2019S); experiment: Evaluation of inhibitory activity against LRRK2 (affinity bead competition binding), G2019S mutant; settings: read-out: Residual active values (%) LRRK2(G2019S); for remaining binding at 0.1 µM: 100 nM; for remaining binding at 0.5 µM: 500 nM
Chain of LRRK2 mutant (G2019S) (Q5S007 whole entry G2019S, looked up): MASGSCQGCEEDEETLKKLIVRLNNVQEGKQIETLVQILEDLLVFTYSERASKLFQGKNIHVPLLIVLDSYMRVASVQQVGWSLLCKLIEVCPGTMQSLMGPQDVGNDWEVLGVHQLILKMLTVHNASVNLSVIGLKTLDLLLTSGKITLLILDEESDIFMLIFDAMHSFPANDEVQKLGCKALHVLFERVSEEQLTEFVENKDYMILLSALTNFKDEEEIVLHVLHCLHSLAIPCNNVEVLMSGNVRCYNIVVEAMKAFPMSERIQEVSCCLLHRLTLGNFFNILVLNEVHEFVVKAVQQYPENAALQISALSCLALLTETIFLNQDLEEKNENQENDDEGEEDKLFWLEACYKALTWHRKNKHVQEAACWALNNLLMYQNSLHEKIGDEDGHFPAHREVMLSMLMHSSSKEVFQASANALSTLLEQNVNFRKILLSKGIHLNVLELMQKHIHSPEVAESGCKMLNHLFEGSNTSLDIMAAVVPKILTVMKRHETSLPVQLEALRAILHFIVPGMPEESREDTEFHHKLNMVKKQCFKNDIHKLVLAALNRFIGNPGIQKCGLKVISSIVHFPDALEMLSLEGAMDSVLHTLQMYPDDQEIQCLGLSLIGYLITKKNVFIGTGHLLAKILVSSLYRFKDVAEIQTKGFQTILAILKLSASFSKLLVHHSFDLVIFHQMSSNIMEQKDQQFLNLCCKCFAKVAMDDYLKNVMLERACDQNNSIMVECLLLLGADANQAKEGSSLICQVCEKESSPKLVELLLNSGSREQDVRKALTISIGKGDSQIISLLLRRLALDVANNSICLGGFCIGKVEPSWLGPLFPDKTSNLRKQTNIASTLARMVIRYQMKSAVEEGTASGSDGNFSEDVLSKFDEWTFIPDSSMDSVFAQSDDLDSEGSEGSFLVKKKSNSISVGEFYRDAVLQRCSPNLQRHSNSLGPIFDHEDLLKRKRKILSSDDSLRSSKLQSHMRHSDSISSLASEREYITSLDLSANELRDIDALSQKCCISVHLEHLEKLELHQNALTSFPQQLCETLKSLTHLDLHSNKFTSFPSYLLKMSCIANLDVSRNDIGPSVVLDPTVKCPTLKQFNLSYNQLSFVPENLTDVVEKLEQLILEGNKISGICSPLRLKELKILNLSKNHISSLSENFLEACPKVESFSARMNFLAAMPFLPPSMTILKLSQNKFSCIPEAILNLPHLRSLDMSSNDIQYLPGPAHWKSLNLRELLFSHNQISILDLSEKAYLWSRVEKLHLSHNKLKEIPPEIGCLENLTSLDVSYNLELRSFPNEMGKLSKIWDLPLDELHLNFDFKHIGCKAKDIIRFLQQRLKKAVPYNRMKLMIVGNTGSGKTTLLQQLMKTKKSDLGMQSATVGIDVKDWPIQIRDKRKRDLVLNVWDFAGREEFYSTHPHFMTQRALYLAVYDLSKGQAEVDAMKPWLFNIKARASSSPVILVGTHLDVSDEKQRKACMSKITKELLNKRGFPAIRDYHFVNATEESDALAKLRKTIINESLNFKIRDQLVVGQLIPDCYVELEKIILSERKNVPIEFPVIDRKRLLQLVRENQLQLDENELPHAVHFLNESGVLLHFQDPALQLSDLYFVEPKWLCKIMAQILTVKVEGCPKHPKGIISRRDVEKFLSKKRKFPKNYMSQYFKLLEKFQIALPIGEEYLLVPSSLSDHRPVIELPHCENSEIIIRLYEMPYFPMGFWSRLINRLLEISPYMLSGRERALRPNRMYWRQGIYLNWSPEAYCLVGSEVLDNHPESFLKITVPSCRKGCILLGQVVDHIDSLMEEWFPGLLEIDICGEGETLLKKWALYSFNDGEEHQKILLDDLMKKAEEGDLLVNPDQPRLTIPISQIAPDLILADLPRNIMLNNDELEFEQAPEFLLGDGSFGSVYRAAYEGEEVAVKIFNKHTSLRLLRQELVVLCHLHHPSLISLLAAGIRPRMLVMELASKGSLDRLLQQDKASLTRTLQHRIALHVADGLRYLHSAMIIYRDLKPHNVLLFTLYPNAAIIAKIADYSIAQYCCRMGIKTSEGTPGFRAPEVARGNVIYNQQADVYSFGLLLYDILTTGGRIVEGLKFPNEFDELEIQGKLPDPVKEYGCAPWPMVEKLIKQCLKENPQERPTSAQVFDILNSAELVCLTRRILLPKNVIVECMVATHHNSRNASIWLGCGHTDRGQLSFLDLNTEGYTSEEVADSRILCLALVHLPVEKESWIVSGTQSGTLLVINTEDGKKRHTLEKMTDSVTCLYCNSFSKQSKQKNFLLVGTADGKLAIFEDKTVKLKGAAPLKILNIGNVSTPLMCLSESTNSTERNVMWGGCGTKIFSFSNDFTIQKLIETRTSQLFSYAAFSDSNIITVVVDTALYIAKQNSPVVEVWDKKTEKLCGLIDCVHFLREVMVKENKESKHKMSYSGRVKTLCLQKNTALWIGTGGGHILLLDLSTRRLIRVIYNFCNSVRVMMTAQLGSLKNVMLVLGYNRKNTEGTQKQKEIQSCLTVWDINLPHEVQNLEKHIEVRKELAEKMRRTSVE
Experimental: (§1) In order to identify the activity inhibitory effect on the LRRK2 wild-type and LRRK2 mutant (G2019S) kinase of the example compound according to the present disclosure, BL21-derived E. coli bacteria (E. coli) were cultured in a 24-well plate until the growth phase (log phase). After culturing, T7 phage tagged with LRRK2 wild-type or LRRK2 mutant (G2019S) was used to infect the multiplicity of infection (MOI) at 0.4. Thereafter, the E. coli bacteria were stirred at 32° C. for 90 to 150 minutes to allow dissolution. The lysate of E. coli bacteria was centrifuged (6,000×g) and filtered (0.2 μm), and the obtained tagged T7 phage […] a DNA-tagged kinase protein (LRRK2 or LRRK2 G2019S) was obtained.
(§2) After blocking the biotinylated ligand with extra biotin, it is washed with Pierce's buffer, SeaBlock (1% BSA, 0.05% Tween 20, 1 mM DTT) to remove unbound ligand and reduce non-specific binding.
(§3) The compound was prepared at a concentration of 40× in 100% DMSO and used after dilution, and all binding reactions were performed in a final volume of 0.02 ml in a 384-well plate.
(§4) The activity inhibitory effect on the LRRK2 wild-type and LRRK2 mutant (G2019S) kinases of the example compounds according to the present disclosure was measured and shown in Table 10 below.

[11] = molecular target: LRRK2 wild-type (Homo sapiens (Human), UniProt Q5S007); experiment: Evaluation of inhibitory activity against LRRK2 (affinity bead competition binding), wild-type; settings: read-out: Residual active values (%) LRRK2; for remaining binding at 0.1 µM: 100 nM; for remaining binding at 0.5 µM: 500 nM
Chain of LRRK2 wild-type (Q5S007 whole entry, looked up): as the sequence (Q5S007 whole entry G2019S, looked up) above, with S2019G counted along it
Experimental: as §1, §2, §3, §4

[12] = tested on: human lung cancer cell line A549; experiment: Cancer cell proliferation inhibitory activity evaluation 2 (CCK-8), A549; assay type: cell-based
[13] = tested on: gastric cancer cell line Hs746T; experiment: Cancer cell proliferation inhibitory activity evaluation 2 (CCK-8), Hs746T; assay type: cell-based; settings: Homo sapiens
[14] = U-937, 10 μM, 72 hours, CCK-8 (Table 3)
[15] = 10 μM, 72 hours, CCK-8, read-out: Cancer cell proliferation inhibitory activity Jurkat
[16] = 72 h, read-out: Cancer cell proliferation inhibitory activity Jurkat

Chain of MLK1 (P80192 whole entry, looked up): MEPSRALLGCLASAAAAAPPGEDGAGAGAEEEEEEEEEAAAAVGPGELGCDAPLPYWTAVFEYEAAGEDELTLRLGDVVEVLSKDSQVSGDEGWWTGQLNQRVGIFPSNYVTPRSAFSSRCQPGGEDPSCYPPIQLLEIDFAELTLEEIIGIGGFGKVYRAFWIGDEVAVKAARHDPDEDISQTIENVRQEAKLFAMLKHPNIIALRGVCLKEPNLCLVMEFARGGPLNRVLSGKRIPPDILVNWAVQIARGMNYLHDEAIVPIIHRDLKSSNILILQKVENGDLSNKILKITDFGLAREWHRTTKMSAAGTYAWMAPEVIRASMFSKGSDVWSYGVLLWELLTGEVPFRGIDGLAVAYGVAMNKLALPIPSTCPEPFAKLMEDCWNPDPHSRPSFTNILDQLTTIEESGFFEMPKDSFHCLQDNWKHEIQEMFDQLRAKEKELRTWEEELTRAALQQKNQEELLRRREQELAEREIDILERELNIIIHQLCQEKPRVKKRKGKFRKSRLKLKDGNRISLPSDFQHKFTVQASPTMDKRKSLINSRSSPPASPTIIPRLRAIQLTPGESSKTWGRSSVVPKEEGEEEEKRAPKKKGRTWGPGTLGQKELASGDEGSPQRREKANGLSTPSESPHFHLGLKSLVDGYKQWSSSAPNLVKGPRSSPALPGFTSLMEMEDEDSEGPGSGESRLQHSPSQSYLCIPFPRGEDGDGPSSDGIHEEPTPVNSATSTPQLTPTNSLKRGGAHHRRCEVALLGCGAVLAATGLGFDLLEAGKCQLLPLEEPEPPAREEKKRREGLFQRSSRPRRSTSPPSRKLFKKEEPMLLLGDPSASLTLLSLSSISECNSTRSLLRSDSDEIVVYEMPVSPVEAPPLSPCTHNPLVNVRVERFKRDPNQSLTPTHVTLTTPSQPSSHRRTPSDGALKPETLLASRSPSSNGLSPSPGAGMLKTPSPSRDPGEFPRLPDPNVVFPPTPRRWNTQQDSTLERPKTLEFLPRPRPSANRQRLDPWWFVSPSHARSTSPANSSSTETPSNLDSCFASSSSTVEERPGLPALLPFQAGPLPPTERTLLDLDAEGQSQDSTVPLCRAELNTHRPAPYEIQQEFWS

SMILES | IC50 [1] | IC50 [2] | Relative degree of expression inhibition (%) Fibronectin-1 [3] | Relative degree of expression inhibition (%) TGF-β1 [4] | Relative degree of expression inhibition (%) α-SMA [5] | IC50 [6] | inhibition at 10 µM ([7]; 10 μM, 72 hours, CCK-8) | inhibition at 10 µM [8, 14] | inhibition at 10 µM [9, 15] | remaining binding at 0.1 µM [10] | remaining binding at 0.5 µM [10] | inhibition at 10 µM ([7]; 72 h) | remaining binding at 0.1 µM [11] | remaining binding at 0.5 µM [11] | inhibition at 10 µM ([8]; U-937, 72 h) | inhibition at 10 µM [9, 16] | inhibition at 10 µM ([12]; A549, 10 μM, 72 hours, CCK-8, read-out: Cancer cell proliferation inhibitory activity A549) | inhibition at 10 µM ([13]; 10 μM, 72 hours, CCK-8, read-out: Cancer cell proliferation inhibitory activity Hs746T) | inhibition at 10 µM ([12]; A549, 72 h, read-out: Cancer cell proliferation inhibitory activity A549) | inhibition at 10 µM ([13]; 72 h, read-out: Cancer cell proliferation inhibitory activity Hs746T)
CCS(=O)(=O)N1CC[C@H](Nc2ccnc3nc(-c4cc(C)n(-c5ccc(OCCN6CCOCC6)cc5)c4C)[nH]c23)C1 [Example 53, (S)-2-(2,5-dimethyl-1-(4-(2-morpholinoethoxy)phenyl)-1H-pyrrol-3-yl)-N-(1-(ethylsulfonyl)pyrrolidine-3-yl)-1H-imidazo[4,5-b]pyridine-7-amine] | 10600 nM | 23200 nM | 69.92% | 33.15% | 74.74% |  |  |  |  |  |  |  |  |  |  |  |  |  |  | 
Cc1cc(-c2nc3c(Nc4cccc(S(N)(=O)=O)c4)c(Br)cnc3[nH]2)c(C)n1-c1ccc(C(=O)N2CCOCC2)cc1 [Example 27, 3-((6-bromo-2-(2,5-dimethyl-1-(4-(morpholine-4-carbonyl)phenyl)-1H-pyrrol-3-yl)-3H-imidazo[4,5-b]pyridine-7-yl)amino)benzenesulfonamide] | 176 nM | 20 nM |  |  |  | 178 nM | 10 to 50% | < 10% | < 10% |  |  |  |  |  |  |  |  |  |  | 
CCS(=O)(=O)N1CC[C@H](Nc2c(Br)cnc3[nH]c(-c4cc(C)n(-c5cccc(S(=O)(=O)N6CCOCC6)c5)c4C)nc23)C1 [Example 11, (S)-6-bromo-2-(2,5-dimethyl-1-(3-(morpholinosulfonyl)phenyl)-1H-pyrrol-3-yl)-N-(1-(ethylsulfonyl)pyrrolidine-3-yl)-3H-imidazo[4,5-b]pyridine-7-amine] |  | 7 nM | 86.85% | 99.40% | 24.73% |  |  |  |  | 7.9% | 1.7% | > 50% | 28% | 6.9% | 10 to 50% | > 50% |  |  |  | 
CCS(=O)(=O)N1CC[C@H](Nc2c(Br)cnc3nc(-c4cc(C)n(-c5cccc(OCCOC)c5)c4C)[nH]c23)C1 [Example 21, (S)-6-bromo-N-(1-(ethylsulfonyl)pyrrolidine-3-yl)-2-(1-(3-(2-methoxyethoxy)phenyl)-2,5-dimethyl-1H-pyrrol-3-yl)-1H-imidazo[4,5-b]pyridine-7-amine] | 75 nM | 15 nM |  |  |  | 243 nM |  |  |  |  |  | > 50% |  |  | 10 to 50% | 10 to 50% |  |  |  | 
CCS(=O)(=O)N1CC[C@H](Nc2c(Br)cnc3nc(-c4cc(C)n(-c5cccc(C(N)=O)c5)c4C)[nH]c23)C1 [Example 20, (S)-3-(3-(6-bromo-7-((1-(ethylsulfonyl)pyrrolidine-3-yl)amino)-1H-imidazo[4,5-b]pyridine-2-yl)-2,5-dimethyl-1H-pyrrol-1-yl)benzamide] | 31 nM | 14 nM |  |  |  | 217 nM |  |  |  |  |  | 10 to 50% |  |  | < 10% | 10 to 50% |  |  |  | 
Cc1cc(-c2nc3c(Nc4cccc(S(N)(=O)=O)c4)c(Br)cnc3[nH]2)c(C)n1-c1cc(S(N)(=O)=O)ccc1Cl [Example 36, 3-(3-(6-bromo-7-((3-sulfamoylphenyl)amino)-3H-imidazo[4,5-b]pyridine-2-yl)-2,5-dimethyl-1H-pyrrole-1-yl)-4-chlorobenzenesulfonamide] |  | 46 nM | 82.94% | 66.72% | 79.46% |  | < 10% | < 10% | < 10% |  |  |  |  |  |  |  |  |  |  | 
CCNS(=O)(=O)c1cccc(-n2c(C)cc(-c3nc4ncc(Br)c(N[C@H]5CCN(S(=O)(=O)CC)C5)c4[nH]3)c2C)c1 [Example 19, (S)-3-(3-(6-bromo-7-((1-(ethylsulfonyl)pyrrolidine-3-yl)amino)-1H-imidazo[4,5-b]pyridine-2-yl)-2,5-dimethyl-1H-pyrrol-1-yl)-N-ethylbenzenesulfonamide] | 36 nM | 14 nM |  |  |  | 90 nM |  |  |  |  |  | > 50% |  |  | > 50% | > 50% |  |  |  | 
CCS(=O)(=O)N1CC[C@H](Nc2c(Br)cnc3nc(-c4cc(C)n(-c5cc(NC(=O)CN6CCN(C)CC6)ccc5C)c4C)[nH]c23)C1 [Example 76, N-(3-(3-(6-bromo-7-(((S)-1-(ethylsulfonyl)pyrrolidine-3-yl)amino)-1H-imidazo[4,5-b]pyridine-2-yl)-2,5-dimethyl-1H-pyrrol-1-yl)-4-methylphenyl)-2-(4-methylpiperazine-1-yl) acetamide] |  | 63 nM | 93.95% | 121.79% | 69.54% |  |  |  |  | 0.9% | 0.1% |  | 3.6% | 1.1% |  |  |  |  |  | 
CCS(=O)(=O)N1CC[C@H](Nc2c(Br)cnc3[nH]c(-c4cc(C)n(-c5cccc(C(=O)O)c5)c4C)nc23)C1 [Example 58, (S)-3-(3-(6-bromo-7-((1-(ethylsulfonyl)pyrrolidine-3-yl)amino)-3H-imidazo[4,5-b]pyridine-2-yl)-2,5-dimethyl-1H-pyrrol-1-yl)benzoic acid] |  | 53 nM | 69.83% | 48.93% | 66.53% |  | < 10% | < 10% | < 10% | 1.4% | 0.2% |  | 5% | 0.7% |  |  | < 10% | < 10% |  | 
CCS(=O)(=O)N1CC[C@H](Nc2c(Br)cnc3nc(-c4cc(C)n(-c5cccc(S(=O)(=O)NC)c5)c4C)[nH]c23)C1 [Example 18, (S)-3-(3-(6-bromo-7-((1-(ethylsulfonyl)pyrrolidine-3-yl)amino)-1H-imidazo[4,5-b]pyridine-2-yl)-2,5-dimethyl-1H-pyrrol-1-yl)-N-methylbenzenesulfonamide] | 75 nM | 13 nM |  |  |  | 109 nM |  |  |  |  |  | > 50% |  |  |  |  |  |  | 10 to 50% | 10 to 50%
CCS(=O)(=O)N1CC[C@H](Nc2c(Br)cnc3[nH]c(-c4cc(C)n(-c5ccccc5)c4C)nc23)C1 [Example 25, (S)-6-bromo-2-(2,5-dimethyl-1-phenyl-1H-pyrrol-3-yl)-N-(1-(ethylsulfonyl)pyrrolidine-3-yl)-3H-imidazo[4,5-b]pyridine-7-amine] | 71 nM | 26 nM |  |  |  | 250 nM | > 50% | 10 to 50% | > 50% | 15% | 3.3% |  | 49% | 17% |  |  |  |  |  | 
CCS(=O)(=O)N1CC[C@H](Nc2c(Br)cnc3nc(-c4cc(C)n(-c5ccc(S(N)(=O)=O)cc5)c4C)[nH]c23)C1 [Example 24, (S)-4-(3-(6-bromo-7-((1-(ethylsulfonyl)pyrrolidine-3-yl)amino)-1H-imidazo[4,5-b]pyridine-2-yl)-2,5-dimethyl-1H-pyrrol-1-yl)benzenesulfonamide] | 29 nM | 20 nM |  |  |  | 95 nM |  |  |  |  |  | 10 to 50% |  |  | 10 to 50% | 10 to 50% |  |  |  | 
